Laboratory results: PubChem BioAssay AID1259411 (Chemical Carcinogenesis Research Information System (CCRIS), 2018)
Active and inactive are the calls of the source. No rule for the calls is given here.

System: rodent carcinogenicity bioassays, tumor incidence
Assay: CCRIS carcinogenicity studies
Outline: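 Archive of carcinogenicity, mutagenicity, tumor promotion and tumor inhibition results drawn from journals, NCI reports and other sources, expert-reviewed; covers 1985-2011 and is no longer updated.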

With `CC(C)N1C(=O)c2ccccc2NS1(=O)=O` the carcinogen call (Species: Mouse, Strain/Sex: B6C3F1/Female (70/sex/group), Route: Oral, Dose: 0, 100, 400, 2000 ppm in diet for 2 yr, Dose: 0, 100, 400, 2000 ppm in diet for 2 yr) was “inactive; negative; purity 93.3%”, the carcinogen call (Species: Mouse, Strain/Sex: B6C3F1/Male (70/sex/group), Route: Oral, Dose: 0, 100, 400, 2000 ppm in diet for 2 yr, Dose: 0, 100, 400, 2000 ppm in diet for 2 yr, Tumor Site: Type of Lesion: Liver: Combined hepatocellular adenoma and carcinoma (13/49 in controls and 22/49 at highest dose)) was “active; positive; purity 93.3%” and the carcinogen call (Species: Rat, Strain/Sex: Fischer 344/DU CRJ/Female (70/sex/group), Route: Oral, Dose: 0, 200, 800, 4000 ppm in diet for 2 yr, Dose: 0, 200, 800, 4000 ppm in diet for 2 yr) was “inactive; negative; purity 93.3%”. The carcinogen call (Species: Rat, Strain/Sex: Fischer 344/DU CRJ/Male (70/sex/group), Route: Oral, Dose: 0, 200, 800, 4000 ppm in diet for 2 yr, Dose: 0, 200, 800, 4000 ppm in diet for 2 yr) was “inactive; negative; purity 93.3%”.

For `O=[N+]([O-])c1ccc2c(ccc3c4ccccc4ccc23)c1`, the carcinogen call (Species: MOUSE, Strain/Sex: ICR/FEMALE, Route: INTRAPERITONEAL, Dose: 0, 100 NMOL (TOTAL DOSE) ADMINISTERED IN 3 SUBDOSES OF 1/7, 2/7, AND 4/7 ON DAYS 1, 8 AND 15 OF LIFE, RESPECTIVELY (STUD) was “inactive; negative” and the carcinogen call (Species: MOUSE, Strain/Sex: ICR/MALE, Route: INTRAPERITONEAL, Dose: 0, 100 NMOL (TOTAL DOSE) ADMINISTERED IN 3 SUBDOSES OF 1/7, 2/7, AND 4/7 ON DAYS 1, 8 AND 15 OF LIFE, RESPECTIVELY (STUD) was “inactive; negative”.

`CCCCN(CC)N=O` was tested, and the carcinogen call (Species: MOUSE, Strain/Sex: DBA/MALE,FEMALE, Route: ORAL, Dose: 10 MG/KG/D IN DRINKING WATER (TOTAL MEAN DOSE 2360 MG/KG), Tumor Site: Type of Lesion: FORESTOMACH: SQUAMOUS CELL CARCINOMA) was “active; positive” and the carcinogen call (Species: RAT, Strain/Sex: WISTAR/MALE, FEMALE, Route: ORAL, Dose: 0, 10 MG/KG/D FOR 4 WK THEN 5 MG/KG/D FOR DURATION OF STUDY (STUDY DURATION: LIFETIME), Tumor Site: Type of Lesion: ESOPHAGUS: CARCINOMA, PAPILLOMA, PHARYNX: PAPILLOMA, ORAL CAVITY: PAPILLOMA, LIVER: ANGIOSARCOMA, HEPATOCELLULAR CARCINO, Tumor Site: Type of Lesion: ESOPHAGUS: CARCINOMA, PAPILLOMA, PHARYNX: PAPILLOMA, ORAL CAVITY: PAPILLOMA, LIVER: ANGIOSARCOMA, HEPATOCELLULAR CARCINO) was “active; positive”.

For `OCCO`, the carcinogen call (Species: MOUSE, Strain/Sex: B6C3F1/FEMALE, Route: ORAL, Dose: 0, 12500, 25000, 50000 PPM IN DIET FOR 721 D (STUDY DURATION: 105 WK), Dose: 0, 12500, 25000, 50000 PPM IN DIET FOR 721 D (STUDY DURATION: 105 WK)) was “inactive; negative” and the carcinogen call (Species: MOUSE, Strain/Sex: B6C3F1/MALE, Route: ORAL, Dose: 0, 6250, 12500, 25000 PPM IN DIET FOR 721 D (STUDY DURATION: 105 WK), Dose: 0, 6250, 12500, 25000 PPM IN DIET FOR 721 D (STUDY DURATION: 105 WK)) was “inactive; negative”.

With `Cl/C=C/CCl` the carcinogen call (Species: MOUSE, Strain/Sex: B6C3F1/FEMALE, Route: GAVAGE, Dose: 0, 50, 100 MG/KG BODY WT (TELONE II) IN CORN OIL 3 D/WK FOR 104 WK, Dose: 0, 50, 100 MG/KG BODY WT (TELONE II) IN CORN OIL 3 D/WK FOR 104 WK, Tumor Site: Type of Lesion: URINARY BLADDER: TRANSITIONAL CELL CARCINOMA, LUNG: ALVEOLAR/BRONCHIOLAR ADENOMA, ALVEOLAR/BRONCHIOLAR ADENOMA OR CARCIN) was “active; positive”, the carcinogen call (Species: MOUSE, Strain/Sex: B6C3F1/FEMALE, Route: INHALATION, Dose: 0, 5, 20, 60 PPM TECHNICAL GRADE 6 HR/D 5 D/WK FOR 2 YR (STUDY DURATION: 2 YR), Dose: 0, 5, 20, 60 PPM TECHNICAL GRADE 6 HR/D 5 D/WK FOR 2 YR (STUDY DURATION: 2 YR)) was “inactive; negative” and the carcinogen call (Species: MOUSE, Strain/Sex: B6C3F1/FEMALE, Route: ORAL, Dose: 0, 2.5, 25, 50 MG/KG BW IN DIET FOR 104 WK (STUDY DURATION: 104 WK), Dose: 0, 2.5, 25, 50 MG/KG BW IN DIET FOR 104 WK (STUDY DURATION: 104 WK)) was “inactive; negative”. For the same compound, the carcinogen call (Species: MOUSE, Strain/Sex: B6C3F1/MALE, Route: INHALATION, Dose: 0, 5, 20, 60 PPM TECHNICAL GRADE 6 HR/D 5 D/WK FOR 2 YR (STUDY DURATION: 2 YR), Dose: 0, 5, 20, 60 PPM TECHNICAL GRADE 6 HR/D 5 D/WK FOR 2 YR (STUDY DURATION: 2 YR), Tumor Site: Type of Lesion: LUNG: BRONCHIOALVEOLAR ADENOMA) was “active; positive”, the carcinogen call (Species: MOUSE, Strain/Sex: B6C3F1/MALE, Route: ORAL, Dose: 0, 2.5, 25, 50 MG/KG BW IN DIET FOR 104 WK (STUDY DURATION: 104 WK), Dose: 0, 2.5, 25, 50 MG/KG BW IN DIET FOR 104 WK (STUDY DURATION: 104 WK)) was “inactive; negative” and the carcinogen call (Species: RAT, Strain/Sex: F344/FEMALE, Route: GAVAGE, Dose: 0, 25, 50 MG/KG BODY WT (TELONE II) IN CORN OIL 3 D/WK FOR 104 WK, Dose: 0, 25, 50 MG/KG BODY WT (TELONE II) IN CORN OIL 3 D/WK FOR 104 WK, Tumor Site: Type of Lesion: FORESTOMACH: SQUAMOUS CELL PAPILLOMA) was “active; positive”. For the same compound, the carcinogen call (Species: RAT, Strain/Sex: F344/FEMALE, Route: INHALATION, Dose: 0, 5, 20, 60 PPM TECHNICAL GRADE 6 HR/D 5 D/WK FOR 2 YR (STUDY DURATION: 2 YR), Dose: 0, 5, 20, 60 PPM TECHNICAL GRADE 6 HR/D 5 D/WK FOR 2 YR (STUDY DURATION: 2 YR)) was “inactive; negative”, the carcinogen call (Species: RAT, Strain/Sex: F344/FEMALE, Route: ORAL, Dose: 0, 2.5, 12.5, 25 MG/KG BW IN DIET FOR 104 WK (STUDY DURATION: 104 WK), Dose: 0, 2.5, 12.5, 25 MG/KG BW IN DIET FOR 104 WK (STUDY DURATION: 104 WK), Tumor Site: Type of Lesion: LIVER: HEPATOCELLULAR ADENOMA) was “active; positive” and the carcinogen call (Species: RAT, Strain/Sex: F344/MALE, Route: GAVAGE, Dose: 0, 25, 50 MG/KG BODY WT (TELONE II) IN CORN OIL 3 D/WK FOR 104 WK, Dose: 0, 25, 50 MG/KG BODY WT (TELONE II) IN CORN OIL 3 D/WK FOR 104 WK, Tumor Site: Type of Lesion: FORESTOMACH: SQUAMOUS CELL PAPILLOMA, SQUAMOUS CELL PAPILLOMA OR CARCINOMA, LIVER: NEOPLASTIC NODULE, NEOPLASTIC NODULE) was “active; positive”. The carcinogen call (Species: RAT, Strain/Sex: F344/MALE, Route: INHALATION, Dose: 0, 5, 20, 60 PPM TECHNICAL GRADE 6 HR/D 5 D/WK FOR 2 YR (STUDY DURATION: 2 YR), Dose: 0, 5, 20, 60 PPM TECHNICAL GRADE 6 HR/D 5 D/WK FOR 2 YR (STUDY DURATION: 2 YR)) was “inactive; negative” and the carcinogen call (Species: RAT, Strain/Sex: F344/MALE, Route: ORAL, Dose: 0, 2.5, 12.5, 25 MG/KG BW IN DIET FOR 104 WK (STUDY DURATION: 104 WK), Dose: 0, 2.5, 12.5, 25 MG/KG BW IN DIET FOR 104 WK (STUDY DURATION: 104 WK), Tumor Site: Type of Lesion: LIVER: HEPATOCELLULAR ADENOMA) was “active; positive”.

For `CSC1=N[C@@](C)(c2ccccc2)C(=O)N1Nc1ccccc1`, the carcinogen call (Species: Mouse, Strain/Sex: C57BL/10JfCD-1 Alpk/Female (55/Group), Route: Oral, Dose: 0, 70, 350, 3500, 7000 ppm (0; 12.6; 63.8; 690.5; 1393.2 mg/kg/d) for 80 wks, study duration 80 wks, Dose: 0, 70, 350, 3500, 7000 ppm (0; 12.6; 63.8; 690.5; 1393.2 mg/kg/d) for 80 wks, study duration 80 wks) was “inactive; negative”, the carcinogen call (Species: Mouse, Strain/Sex: C57BL/10JfCD-1 Alpk/Male (55/Group), Route: Oral, Dose: 0, 70, 350, 3500, 7000 ppm (0; 9.5; 47.5; 525.5; 1100.2 mg/kg/d) for 80 wks, study duration 80 wks, Dose: 0, 70, 350, 3500, 7000 ppm (0; 9.5; 47.5; 525.5; 1100.2 mg/kg/d) for 80 wks, study duration 80 wks) was “inactive; negative” and the carcinogen call (Species: Rat, Strain/Sex: Sprague-Dawley/Female (70/Group), Route: Oral, Dose: 0, 60, 150, 1000 ppm (0; 3.63; 9.24; 60.93 mg/kg/day) in diet for 104 wks, study duration 104 wks, Dose: 0, 60, 150, 1000 ppm (0; 3.63; 9.24; 60.93 mg/kg/day) in diet for 104 wks, study duration 104 wks) was “inactive; negative”. The carcinogen call (Species: Rat, Strain/Sex: Sprague-Dawley/Female (70/Group), Route: Oral, Dose: 0, 5000 ppm in diet for 104 wks, study duration 104 wks, Dose: 0, 5000 ppm in diet for 104 wks, study duration 104 wks) was “inactive; negative”, the carcinogen call (Species: Rat, Strain/Sex: Sprague-Dawley/Male (70/Group), Route: Oral, Dose: 0, 60, 150, 1000 ppm (0; 2.83; 7.07; 47.68 mg/kg/day) in diet for 104 wks, study duration 104 wks, Dose: 0, 60, 150, 1000 ppm (0; 2.83; 7.07; 47.68 mg/kg/day) in diet for 104 wks, study duration 104 wks) was “inactive; negative” and the carcinogen call (Species: Rat, Strain/Sex: Sprague-Dawley/Male (70/Group), Route: Oral, Dose: 0, 5000 ppm in diet for 104 wks, study duration 104 wks, Dose: 0, 5000 ppm in diet for 104 wks, study duration 104 wks) was “inactive; negative”.
